From patent publication US5798359A, “Piperazino derivatives as neurokinin antagonists” (Schering Corporation, priority 1995, dated 1998)

Columns and labels:
[1] = molecular target: T1, human neurokinin 2 (NK2) receptor (Homo sapiens, UniProt P21452); experiment: Neurokinin NK2 receptor binding assay ([3H]-Neurokinin A, CHO cell membranes); conditions: for inhibition at 1 µM: 1 μM concentration
T1 construct: expressed in transfected cells; host or cells: Chinese hamster ovary (CHO) cells, G418 medium; membranes
T1 sequence (P21452 1-398): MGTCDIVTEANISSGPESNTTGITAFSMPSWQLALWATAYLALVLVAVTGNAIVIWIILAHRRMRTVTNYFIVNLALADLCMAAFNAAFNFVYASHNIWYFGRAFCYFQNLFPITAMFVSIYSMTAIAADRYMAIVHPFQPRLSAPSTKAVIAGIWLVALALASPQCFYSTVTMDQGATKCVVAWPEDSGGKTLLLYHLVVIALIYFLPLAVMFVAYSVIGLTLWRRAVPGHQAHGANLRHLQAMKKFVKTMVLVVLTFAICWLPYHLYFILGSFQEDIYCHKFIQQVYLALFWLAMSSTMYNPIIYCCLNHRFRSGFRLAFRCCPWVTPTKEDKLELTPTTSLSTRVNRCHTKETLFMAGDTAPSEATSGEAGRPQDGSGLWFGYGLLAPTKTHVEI
Procedure: (§1) Chinese Hamster ovary (CHO) cells transfected with the coding regions for the human neurokinin 1 (NK1) of the human neurokinin 2 (NK2) receptors are grown in Dulbecco's minimal essential medium supplemented with 10% fetal calf serum, 0.1 mM non-essential amino acids, 2 mM glutamine, 100 units/ml of penicillin and streptomycin, and 0.8 mg of G418/ml at 37° C. in a humidified atmosphere containing 5% CO2.
(§2) Cells are detached from T-175 flasks with a sterile solution containing 5 mM EDTA in phosphate buffered saline. Cells are harvested by centrifugation and washed in RPMI media at […] for 5 minutes. The pellet is resuspended in Tris-HCl (pH7.4) containing 1 uM phsphoramidon and 4 ug/ml of chymostatin at a cell density of 30×10^6 cells/ml. The suspension is then homogenized in a Brinkman Polytron (setting 5) for 30-45 seconds. The homogenate is centrifuged at 800×g for 5 min at […] to collect unbroken cells and nuclei. The supernatant is centrifuged in a Sorvall RC5C at 19,000 rpm ([…]) for 30 min at 4° C. The pellet is resuspended, an aliquot is removed for a protein determination (BCA) and washed again. The resulting pellet is stored at -80° C.
(§3) Binding is initiated by the addition of 100 μl of membrane (10-20 μg) containing the human NK-1 or NK-2 receptor in a final volume of 200 μl. After 40 minutes at room temperature, the reaction is stopped by rapid filtration onto Whatman GF/C filters which have been presoaked in 0.3% polyethylenimine. Filters are washed 2 times with 3 ml of 50 mM Tris-HCl (pH7.4). Filters are added to 6 mls of Ready-Safe liquid scintillation cocktail and quantified by liquid scintillation spectrometry in a LKB 1219 RackBeta counter. Non-specific binding is determined by the addition of either 1 μM of CP-99994 (NK1) or 1 μM SR-48968 (NK2) (both synthesized by the chemistry department of Schering-Plough Research Institute).

[2] = molecular target: T2, human neurokinin 1 (NK1) receptor (Homo sapiens, UniProt P25103); experiment: Neurokinin NK1 receptor binding assay ([3H]-Substance P, CHO cell membranes); conditions: for Ki: [3H]-Substance P 0.8 nM, Cheng and Prusoff
T2 construct: expressed in transfected cells; host or cells: Chinese hamster ovary (CHO) cells, G418 medium; membranes
T2 sequence (P25103 whole entry): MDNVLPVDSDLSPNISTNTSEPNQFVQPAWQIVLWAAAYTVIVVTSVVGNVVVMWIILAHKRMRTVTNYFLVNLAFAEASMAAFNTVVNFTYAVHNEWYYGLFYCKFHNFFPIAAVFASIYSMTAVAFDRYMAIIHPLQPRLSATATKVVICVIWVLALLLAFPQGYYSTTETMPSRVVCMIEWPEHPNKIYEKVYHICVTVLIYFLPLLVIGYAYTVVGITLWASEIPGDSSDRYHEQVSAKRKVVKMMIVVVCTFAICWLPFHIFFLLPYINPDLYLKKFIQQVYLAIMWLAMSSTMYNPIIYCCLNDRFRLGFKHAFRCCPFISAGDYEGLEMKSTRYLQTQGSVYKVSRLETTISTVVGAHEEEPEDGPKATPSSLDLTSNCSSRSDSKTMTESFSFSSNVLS
Procedure: as §1, §2, §3

## COC1(C[S+]([O-])c2ccccc2)CCN(CC(=O)N2CCN(Cc3cc(C(F)(F)F)cc(C(F)(F)F)c3)CC2c2ccc(Cl)c(Cl)c2)CC1 (stereo not drawn)
[1]
  inhibition at 1 µM: 24%
[2]
  Ki: 136 nM

## O=C(CNC1CCN(Cc2ccccc2)CC1)N1CCN(Cc2cccc(C(F)(F)F)c2)CC1c1ccc(Cl)c(Cl)c1 (stereo not drawn)
[1]; [3H]-Neurokinin A 1.0 nM, Cheng and Prusoff
  Ki: 175 nM
[2]
  Ki: 30 nM

## Cc1cccc(C)c1N1CCN(CC(=O)N2CCN(Cc3cc(C(F)(F)F)cc(C(F)(F)F)c3)CC2c2ccccc2)CC1 (stereo not drawn)
[1]
  inhibition at 1 µM: 0%
[2]; 1 μM concentration
  inhibition at 1 µM: 48%
